Data published in patent US8754079B2, “Cycloalkyl containing thienopyrimidines for pharmaceutical compositions” (Boehringer Ingelheim International GmbH, priority 2010, dated 2014).
“And” between values parts separate entries of the source, which are not always exact repeats. Equal values may be shown once.

molecular target: T1, MNK2 (Homo sapiens, UniProt Q9HBH9); experiment: Mnk2a in vitro kinase assay (indirect fluorescence polarization); assay type: biochemical; details: pre-activated GST-Mnk2a 2.5 nM, 20 μM ATP, 30 μM substrate peptide
T1 construct: the open reading frames of human Mnk1 and Mnk2a were amplified from cDNA; made in house; host or cells: E. coli BL21
Method: Inhibitory potency of compounds against Mnk1, Mnk2a and other kinases was assessed with assays based on a format known to those skilled in the art as the indirect (competitive) fluorescence polarization. The assay detection system comprises a small fluorophore-labeled phospho-peptide (termed ligand) bound to a phospho-specific antibody. The product generated by the kinase reaction competes with the ligand for antibody binding. Based on the larger molecular volume of the bound ligand, which results in a lower rotation rate in solution, its emitted light has a higher degree of polarization than the one from the free ligand.
Example 2a. Mnk1 and Mnk2a in vitro kinase assay
As a source of enzyme, human Mnk1 and human Mnk2a were expressed as GST fusion proteins in E. coli, purified to >80% homogeneity by glutathione affinity chromatography and activated in vitro with pre-activated ERK2. In brief, the open reading frames of human Mnk1 and Mnk2a were amplified from cDNA using the forward/reverse primer pairs
(utilized restriction sites underlined), respectively, and cloned into the BamHI and SalI sites of the vector pGEX-4T1 (Amersham, Sweden, cat. no. 27-4580-01). These constructs allow prokaryotic expression of Mnk1 or Mnk2a as fusion protein with a N-terminal glutathione S-transferase (GST) tag, referred to as GST-Mnk1 or GSTMnk2a. The following expression and purification procedure was identical for GSTMnk1 and GST-Mnk2a, referring in general to GST-Mnk, when not distinguishing between the two isoforms. Expression of GST-Mnk was in E. coli BL21 (Merck Biosciences, Germany, cat. no. 69449). Cells were grown in LB-Bouillon (Merck, Germany, cat. no. 1.10285) supplemented with 100 μg/ml ampicillin (Sigma, Germany, cat. no. A9518) at 37° C. When the culture had reached a density corresponding to an A600 of 0.8, an equal volume of ice cold LB/ampicillin was added, the culture transferred to 25° C. and induced for 4 h with 1 mM isopropyl thiogalactoside (IPTG, Roth, Germany, cat. no. 2316.4). Cells harvested by centrifugation were resuspended in 10 ml lysis buffer (50 mM tris(hydroxymethyl)aminomethane hydrochloride (Tris/HCl, Sigma, Germany, cat. no. T5941) pH 7.5, 300 mM sodium chloride (NaCl, Sigma, Germany, cat. no. S7653), 5% (w/v) glycerol (Sigma, Germany, cat. no. G5516), 3 mM DTT dithiotreitol (DTT, Sigma, Germany, cat. no. D9779)) per gram wet weight cell pellet. Lysates were prepared by disruption of cells with a sonifier and subsequent clearing by centrifugation at 38000 g for 45 min at 4° C.
The lysate was applied to a GSTPrep FF 16/10 column (Amersham, Sweden, cat. no. 17-5234-01) equilibrated with lysis buffer. Removal of unbound material was with 3 column volumes (CV) lysis buffer. Elution was with 2 CV of elution buffer (50 mM Tris/HCl pH 7.5, 300 mM NaCl, 5% (w/v) glycerol, 20 mM glutathione (Sigma, Germany, cat. no. G4251)). Peak fractions were pooled and the protein transferred into storage buffer (50 mM Tris/HCl pH 7.5, 200 mM NaCl, 0.1 mM ethylene glycolbis(2-aminoethylether)-N,N,N′,N′-tetraacetic acid (EGTA, Aldrich, Germany, cat. no. 23, 453-2), 1 mM DTT, 10% (w/v) glycerol, 0.5 M sucrose (Sigma, Germany, cat. no. S0389) by gel filtration on a PD10 desalting column (Amersham, Sweden, cat. no. 17-0851-01). Aliquots were shock frozen in liquid nitrogen and stored at −80° C.
Activation of Mnk1 and Mnk2a was at a concentration of 2.5 μM of either purified GST-Mnk1 or GST-Mnk2a by incubation with 150 nM pre-activated NHis-ERK2 (see ERK2 assay for preparation) and 50 μM adenosine triphosphate (ATP, Sigma, cat. no. A2699) in a buffer comprising 20 mM N-(2-hydroxyethyl)piperazine-N′-(2-ethanesulfonic acid) (HEPES, Fluka, Germany, cat. no 54459)/potassium hydroxide (KOH, Roth, Germany, cat. no 6751.1) pH 7.4, 10 mM magnesium chloride (MgCl2, Sigma, Germany, cat. no. M2670), 0.25 mM DTT, 0.05% (w/v) polyoxyethylene 20 stearylether (Brij 78, Sigma, Germany, cat. no. P4019) (HMDB buffer) for 45 min at 30° C. […]

T1 sequence (Q9HBH9 whole entry): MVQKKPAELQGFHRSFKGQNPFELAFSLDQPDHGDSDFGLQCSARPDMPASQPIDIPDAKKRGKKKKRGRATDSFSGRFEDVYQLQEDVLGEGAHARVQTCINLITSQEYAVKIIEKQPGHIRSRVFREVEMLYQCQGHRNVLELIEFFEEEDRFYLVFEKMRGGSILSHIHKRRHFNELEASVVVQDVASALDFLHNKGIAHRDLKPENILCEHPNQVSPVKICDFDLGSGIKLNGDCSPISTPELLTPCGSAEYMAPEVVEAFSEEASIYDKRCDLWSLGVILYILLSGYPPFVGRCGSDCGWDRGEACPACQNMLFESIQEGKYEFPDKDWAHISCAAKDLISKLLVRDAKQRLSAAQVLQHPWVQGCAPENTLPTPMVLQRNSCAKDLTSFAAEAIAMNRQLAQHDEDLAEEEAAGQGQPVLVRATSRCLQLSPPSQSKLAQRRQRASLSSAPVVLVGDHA

| Compound | IC50 |
| --- | --- |
| 4-(4-fluoro-2-(cis-3-hydroxycyclopentyloxy)phenylamino)-5-methylthieno[2,3-d]pyrimidine-6-carboxamide and 4-(4-fluoro-2-(trans-3-hydroxycyclopentyloxy)phenylamino)-5-methylthieno[2,3-d]pyrimidine-6-carboxamide [Example 242] | 5 nM and 4 nM |
| Cc1c(C(=O)NC2CC2N)sc2ncnc(Nc3ccc(F)cc3OC3CCCC(O)C3)c12 (mixture of isomers) [Example 59] | 34 nM |
| Cc1c(C(=O)NCC2CNCCO2)sc2ncnc(Nc3ccc(F)cc3OC3CCCC(O)C3)c12 (mixture of isomers) [Example 67] | 18 nM |
| Cc1c(C(=O)NCC2COCCN2)sc2ncnc(Nc3ccc(F)cc3OC3CCCC(O)C3)c12 (mixture of isomers) [Example 68] | 31 nM |
| Cc1c(C(=O)NCC(C)O)sc2ncnc(Nc3ccc(F)cc3OC3CCCC(O)C3)c12 (mixture of isomers) [Example 73] | 43 nM |
| COC1CCCC(Oc2cc(F)ccc2Nc2ncnc3sc(C(=O)NCC4CNCCO4)c(C)c23)C1 (mixture of isomers) [Example 83] | 53 nM |
| COC1CCCC(Oc2cc(F)ccc2Nc2ncnc3sc(C(=O)NCC4CNCCO4)c(C)c23)C1 (mixture of isomers) [Example 98] | 17 nM |
| COC1CCCC(Oc2ncccc2Nc2ncnc3sc(C(=O)NC4CC4N)c(C)c23)C1 (mixture of isomers) [Example 111] | 36 nM |
| COC1CCCC(Oc2ncccc2Nc2ncnc3sc(C(=O)NCC4CNCCO4)c(C)c23)C1 (mixture of isomers) [Example 119] | 11 nM |
| COC1CCCC(Oc2ncccc2Nc2ncnc3sc(C(=O)NC4CC4N)c(C)c23)C1 (mixture of isomers) [Example 132] | 96 nM |
| COC1CCCC(Oc2ncccc2Nc2ncnc3sc(C(=O)NCC4COCCN4)c(C)c23)C1 (mixture of isomers) [Example 141] | 89 nM |
| COC1CCCC(Oc2ncccc2Nc2ncnc3sc(C(=O)NCC(C)O)c(C)c23)C1 (mixture of isomers) [Example 146] | 105 nM |
| Cc1c(C(N)=O)sc2ncnc(Nc3ccc(F)cc3O[C@@H]3CCCC[C@H]3N(C)S(C)(=O)=O)c12 (racemic) [Example 13, Racemic 4-(4-Fluoro-2-(trans-2-(N-methylmethylsulfonamido)cyclohexyloxy)phenylamino)-5-methylthieno[2,3-d]pyrimidine-6-carboxamide] | 440 nM |
| CC(=O)N(C)[C@@H]1CCCC[C@H]1Oc1cc(F)ccc1Nc1ncnc2sc(C(N)=O)c(C)c12 (racemic) [Example 14, Racemic 4-(4-fluoro-2-(trans-2-(N-methylacetamido)cyclohexyloxy)phenylamino)-5-methylthieno[2,3-d]pyrimidine-6-carboxamide] | 1600 nM |
| CO[C@@H]1CCCC[C@H]1Oc1cc(F)ccc1Nc1ncnc2sc(C(N)=O)c(C)c12 (racemic) [Example 50, Racemic 4-[4-Fluoro-2-(trans-2-methoxy-cyclohexyloxy)-phenylamino]-5-methyl-thieno[2,3-d]pyrimidine-6-carboxylic acid amide] | 10 nM |
| CO[C@H]1CCCC[C@H]1Oc1cc(F)ccc1Nc1ncnc2sc(C(N)=O)c(C)c12 (racemic) [Example 55, Racemic 4-[4-Fluoro-2-(cis-2-methoxy-cyclohexyloxy)-phenylamino]-5-methyl-thieno[2,3-d]pyrimidine-6-carboxylic acid amide] | 59 nM |
| Cc1c(C(N)=O)sc2ncnc(Nc3ccc(F)cc3O[C@@H]3CCCC[C@@H]3O)c12 (racemic) [Example 56, Racemic 4-[4-Fluoro-2-((cis)-2-hydroxy-cyclohexyloxy)-phenylamino]-5-methyl-thieno[2,3-d]pyrimidine-6-carboxylic acid amide] | 33 nM |

| Compound | IC50 |
| --- | --- |
| Cc1c(C(N)=O)sc2ncnc(Nc3ccc(F)cc3O[C@@H]3CCC[C@H](O)C3)c12 (racemic) [Example 57, Racemic 4-[4-Fluoro-2-((cis)-3-hydroxy-cyclohexyloxy)-phenylamino]-5-methyl-thieno[2,3-d]pyrimidine-6-carboxylic acid amide] | 7 nM |
| Cc1c(C(N)=O)sc2ncnc(Nc3ccc(F)cc3O[C@@H]3CCC[C@@H](O)C3)c12 (racemic) [Example 58, Racemic 4-[4-Fluoro-2-((trans)-3-hydroxy-cyclohexyloxy)-phenylamino]-5-methyl-thieno[2,3-d]pyrimidine-6-carboxylic acid amide] | 6 nM |
| Cc1c(C(=O)NCC#CCN)sc2ncnc(Nc3ccc(F)cc3O[C@@H]3CCC[C@@H](O)C3)c12 (racemic) [Example 60] | 14 nM |
| Cc1c(C(=O)NCCCCO)sc2ncnc(Nc3ccc(F)cc3O[C@@H]3CCC[C@@H](O)C3)c12 (racemic) [Example 61] | 26 nM |
| Cc1c(C(=O)NCc2cnco2)sc2ncnc(Nc3ccc(F)cc3O[C@@H]3CCC[C@@H](O)C3)c12 (racemic) [Example 62] | 17 nM |
| Cc1c(C(=O)NCC#N)sc2ncnc(Nc3ccc(F)cc3O[C@@H]3CCC[C@@H](O)C3)c12 (racemic) [Example 63] | 14 nM |
| CNC(=O)CNC(=O)c1sc2ncnc(Nc3ccc(F)cc3O[C@@H]3CCC[C@@H](O)C3)c2c1C (racemic) [Example 64] | 21 nM |
| Cc1c(C(=O)NCC#CCN(C)C)sc2ncnc(Nc3ccc(F)cc3O[C@@H]3CCC[C@@H](O)C3)c12 (racemic) [Example 65] | 16 nM |
| Cc1c(C(=O)NCCCN2CCOCC2)sc2ncnc(Nc3ccc(F)cc3O[C@@H]3CCC[C@@H](O)C3)c12 (racemic) [Example 66] | 26 nM |
| Cc1c(C(=O)N[C@H]2CC[C@H](O)CC2)sc2ncnc(Nc3ccc(F)cc3O[C@@H]3CCC[C@@H](O)C3)c12 (racemic) [Example 69] | 34 nM |
| Cc1c(C(=O)NCCN2CCCCC2)sc2ncnc(Nc3ccc(F)cc3O[C@@H]3CCC[C@@H](O)C3)c12 (racemic) [Example 72] | 23 nM |
| Cc1c(C(=O)NCCCO)sc2ncnc(Nc3ccc(F)cc3O[C@@H]3CCC[C@@H](O)C3)c12 (racemic) [Example 74] | 22 nM |
| Cc1c(C(=O)NCc2cn(C)cn2)sc2ncnc(Nc3ccc(F)cc3O[C@@H]3CCC[C@@H](O)C3)c12 (racemic) [Example 76] | 13 nM |
| CCNC(=O)c1sc2ncnc(Nc3ccc(F)cc3O[C@@H]3CCC[C@@H](O)C3)c2c1C (racemic) [Example 78] | 25 nM |
| CO[C@@H]1CCC[C@@H](Oc2cc(F)ccc2Nc2ncnc3sc(C(N)=O)c(C)c23)C1 (racemic) [Example 79, Racemic 4-[4-Fluoro-2-((trans)-3-methoxy-cyclohexyloxy)-phenylamino]-5-methyl-thieno[2,3-d]pyrimidine-6-carboxylic acid amide] | 15 nM |
| CO[C@@H]1CCC[C@@H](Oc2cc(F)ccc2Nc2ncnc3sc(C(=O)NCc4cnco4)c(C)c23)C1 (racemic) [Example 82] | 44 nM |
| CO[C@@H]1CCC[C@@H](Oc2cc(F)ccc2Nc2ncnc3sc(C(=O)NCCCN(C)C)c(C)c23)C1 (racemic) [Example 88] | 61 nM |
